Test results: US20150352137A1, “THYMIDINE FOR PREVENTING NEURAL TUBE DEFECTS” (priority 2012, published 2015)

What was measured:
[1] = test system: curly tail (ct/ct) embryos; assay: Frequency of spina bifida, tail flexion defects and straight tails in curly tail embryos after maternal supplementation; type: in vivo, mouse; conditions: for frequency of spina bifida compared with controls: maternal i.p. 20 mg/kg each reagent daily E7.5-10.5, embryos scored E11.5-13.5; for frequency of spina bifida compared with controls / frequency of straight-tailed (unaffected) embryos compared with controls: z-test; for frequency of straight-tailed (unaffected) embryos compared with controls: all embryos
Text: The curly tail (ct) mouse is considered a useful model for NTDs owing to a number of characteristics that resemble the corresponding defects in humans. These include a multifactorial etiology (with effects of both genetic and environmental factors), location of spina bifida lesions at the lumbosacral level, the presence of elevated alpha-fetoprotein in the amniotic fluid and a female excess among exencephalic embryos. […] The closure defects in ct/ct embryos are a mechanical consequence of excessive ventral curvature of the caudal region of the embryo. This, in turn, results from a dorso-ventral growth imbalance caused by a diminished cellular proliferation rate in the hindgut endoderm. In addition to spina bifida, cranial NTDs (exencephaly) also occur at low frequency among curly tail embryos (approximately 5%), but the cellular basis for these defects is not known. Curly tail mice were maintained as a closed random-bred colony as described in Van […] et al (Anat Embryol 2001 203: 225-237). […] Any resorptions were recorded. Crown-rump length was measured using an eyepiece graticule. Statistical analysis was carried out using SigmaStat (version 3.5; Systat Software Inc). Proportions were compared by z-test. Comparisons of mean values were made by […] or by One Way ANOVA with pairwise analysis by Holm-Sidak test. Embryos removed from pregnant females at E11.5-13.5 were scored for the outcome of low spinal neurulation as: normal (ST, straight tail), tail flexion defect (CT, curled tail), or open spina bifida which was always associated with a tail flexion defect (SB plus CT). Tail flexion defects arise when closure of the neural tube is delayed but does ultimately occur.

curly tail mice = conditions: female, mouse, in vivo
Protocol: Experimental litters were generated by overnight mating with the day of finding a copulation plug designated embryonic day (E) 0.5. Maternal supplementation was performed daily from E7.5-10.5.
Treatments were: control (water only), thymidine+adenine, thymidine+hypoxanthine, thymidine+GMP, thymidine only, adenine only (all reagents from Sigma). GMP was used instead of guanine owing to solubility considerations in preparing solutions for injection. Animal studies were carried out under regulations of the Animals (Scientific Procedures) Act 1986 of the UK Government, and in according with guidance issued by the Medical Research Council, UK in Responsibility in the Use of Animals for Medical Research (July 1993).
Collection of Embryos Litters were dissected from the uterus, at E11.5-13.5, in Dulbecco's Modified Eagle's Medium containing 10% fetal calf serum and assessed for presence of neural tube defects (NTDs) under a light microscope. Any resorptions were recorded. Crown-rump length was measured using an eyepiece graticule.
In order to evaluate potential effects of treatment on litter size or embryonic viability, the number of embryos in each litter was recorded together with the presence of dead or resorbed embryos.

curly tail embryos = assay: Frequency of exencephaly (cranial NTDs) among curly tail embryos after maternal supplementation; type: in vivo, mouse; conditions: maternal i.p. 20 mg/kg each reagent daily E7.5-10.5; controls 6.8%
Protocol: The closure defects in ct/ct embryos are a mechanical consequence of excessive ventral curvature of the caudal region of the embryo. This, in turn, results from a dorso-ventral growth imbalance caused by a diminished cellular proliferation rate in the hindgut endoderm. In addition to spina bifida, cranial NTDs (exencephaly) also occur at low frequency among curly tail embryos (approximately 5%), but the cellular basis for these defects is not known. […] Any resorptions were recorded. Crown-rump length was measured using an eyepiece graticule. The frequency of exencephaly (cranial NTDs) among genetically predisposed curly tail embryos was also assessed. The frequency of exencephaly was 6.8% among embryos from control litters. There was a trend towards diminished frequency of exencephaly among embryos treated with thymidine and adenine, thymidine and GMP, or thymidine only, compared with controls (3.0%, 2.5% and 2.7% respectively, see FIG. 4).

genomic DNA = assay: Incorporation of tritiated nucleotide precursors into genomic DNA in embryo culture; parameters: species or system mouse; conditions: embryos cultured E9.5-10.5, mean ± SEM, n = 3
Protocol: Embryos were explanted at E9.5 and cultured for 24 hours in rat serum as described previously (Cockroft, In: Copp […], editors. Postimplantation Mammalian Embryos: A Practical Approach. Oxford: […] DNA concentration was determined by NanoDrop.

ct/ct embryos = conditions: supplementation; cited from earlier work
neural tube defects = conditions: cited from earlier work

Nc1ncnc2nc[nH]c12 [Ade only, adenine]
frequency of spina bifida compared with controls [1]: no effect
Mean litter size (curly tail mice): 7.5 ± 0.7
Resorption per litter (curly tail mice): 0.8 ± 0.3

Cc1cn([C@H]2C[C@H](O)[C@@H](CO)O2)c(=O)[nH]c1=O [Thy only, thymidine]
frequency of straight-tailed (unaffected) embryos compared with controls ([1]; listed as Thy): significantly higher
frequency of straight-tailed (unaffected) embryos compared with controls ([1]; listed as thymidine only): higher frequency
proportion of unaffected, straight tail embryos within litter compared with controls ([1]; litter-by-litter analysis, One Way ANOVA): not statistically significant
frequency of spina bifida compared with controls ([1]; 20 mg/kg): trend towards reduced spina bifida frequency
frequency of spina bifida compared with controls ([1]; listed as thymidine alone, 20 mg/kg): trend towards reduced frequency
Mean litter size (curly tail mice): 7.4 ± 0.8
Resorption per litter (curly tail mice): 0.9 ± 0.4
frequency of exencephaly (curly tail embryos): 2.7%

Nc1ncnc2nc[nH]c12 [[^3H]-adenine]
[^3H] incorporation into genomic DNA (genomic DNA; 37,000 Bq/ml, 0.036 nmol/ml): 40.0 ± 6.6 cpm/μg
[^3H] incorporation into genomic DNA (genomic DNA; 74,000 Bq/ml, 0.07 nmol/ml): 82.8 ± 6.7 cpm/μg

Cc1cn([C@H]2C[C@H](O)[C@@H](CO)O2)c(=O)[nH]c1=O [[^3H]-thymidine]
[^3H] incorporation into genomic DNA (genomic DNA; 37,000 Bq/ml, 0.07 nmol/ml): 898.4 ± 98.0 cpm/μg

Nc1nc2ncc(CNc3ccc(C(=O)N[C@@H](CCC(=O)O)C(=O)O)cc3)nc2c(=O)[nH]1 [folic acid]
prevention of NTDs in ct/ct embryos (ct/ct embryos): not preventable
reduction of NTD recurrence risk (neural tube defects; 5 mg/day, women with a previous affected pregnancy): ~70%
reduction in the prevalence of NTDs (neural tube defects; USA, fortification of bread flour): 26%
NTDs not preventable by maternal treatment (neural tube defects; human, in vivo): 30-50%
NTD recurrences prevented (neural tube defects; randomised clinical trials, administered early in pregnancy): up to 70%
